Measured values as given in ChEMBL document CHEMBL1201862, “PubChem BioAssay data set” (2004).
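Protocol summary: plate cells (96-well), add compound at 5 concentrations, incubate 48 h, interpolate endpoints linearly. GI50 marks 50% less growth.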 Active and inactive are the calls of the source. Cut-off read from the data, not from the text of the source: active = GI50 up to about 1.1 µM and inactive = higher.

What was measured:
Assay in all cases: NCI-60 cell line screen, 48 h
TK-10 = system: TK-10
SF-539 = system: SF-539
OVCAR-5 = system: OVCAR-5
SR = system: SR
PC-3 = system: PC-3
OVCAR-3 = system: OVCAR-3
MOLT-4 = system: MOLT-4
SF-295 = system: SF-295
HOP-62 = system: HOP-62
A498 = system: A498
SK-MEL-5 = system: SK-MEL-5
SK-MEL-2 = system: SK-MEL-2
NCI-H522 = system: NCI-H522
K562 = system: K562
UACC-62 = system: UACC-62
RPMI-8226 = system: RPMI-8226
SK-OV-3 = system: SK-OV-3
MDA-MB-435 = system: MDA-MB-435
IGROV-1 = system: IGROV-1
SNB-75 = system: SNB-75

Measured: GI50

C=C[C@@H]1C(CO)=CCC2[C@H]1CCC1C(C)(C)C(=O)CC[C@]21C (stereo partly drawn)
inactive: TK-10 > 100 µM | SF-539 > 100 µM | OVCAR-5 > 100 µM | SR > 100 µM | PC-3 > 100 µM | OVCAR-3 > 100 µM | MOLT-4 > 100 µM | SF-295 > 100 µM | HOP-62 > 100 µM | A498 > 100 µM | SK-MEL-5 > 100 µM | SK-MEL-2 > 100 µM | NCI-H522 > 100 µM | K562 > 100 µM | UACC-62 > 100 µM | RPMI-8226 > 100 µM | SK-OV-3 > 100 µM | MDA-MB-435 > 100 µM | IGROV-1 > 100 µM

CCOC(=O)C1Cc2c(cc3c4c(cccc24)N(C(C)=O)C3)N(C)C1 (stereo not drawn)
inactive: TK-10 > 100 µM | SF-539 3.18 µM | OVCAR-5 17.7 µM | SR 41.6 µM | PC-3 4.02 µM | OVCAR-3 1.44 µM | MOLT-4 4.02 µM | SF-295 8.26 µM | HOP-62 > 100 µM | A498 > 100 µM | SK-MEL-5 > 100 µM | SK-MEL-2 > 100 µM | SNB-75 24.2 µM | K562 4.39 µM | UACC-62 13.4 µM | RPMI-8226 > 100 µM | SK-OV-3 71.8 µM | MDA-MB-435 2.56 µM | IGROV-1 5.83 µM
active: NCI-H522 0.0681 µM

O=C(O)[C@H]1NC[C@@H]2ON=C(Br)[C@@H]21
inactive: TK-10 > 100 µM | SF-539 > 100 µM | OVCAR-5 > 100 µM | SR > 100 µM | PC-3 > 100 µM | OVCAR-3 > 100 µM | MOLT-4 > 100 µM | SF-295 > 100 µM | HOP-62 > 100 µM | A498 > 100 µM | SK-MEL-5 > 100 µM | SK-MEL-2 > 100 µM | NCI-H522 > 100 µM | SNB-75 > 100 µM | K562 > 100 µM | UACC-62 > 100 µM | RPMI-8226 > 100 µM | SK-OV-3 > 100 µM | MDA-MB-435 > 100 µM | IGROV-1 > 100 µM

CC(=O)O[C@@H]1[C@@H](C)[C@]2(CC(c3ccoc3)OC2O)C2CCC3O[C@]3(C)[C@]2(C)[C@@H]1OC(C)=O (stereo partly drawn)
inactive: TK-10 47.5 µM | SF-539 22.7 µM | OVCAR-5 > 100 µM | SR 23.4 µM | PC-3 32.8 µM | OVCAR-3 42 µM | MOLT-4 19.1 µM | SF-295 71.6 µM | A498 95.1 µM | SK-MEL-5 25.4 µM | SK-MEL-2 57.4 µM | NCI-H522 27.9 µM | SNB-75 46.7 µM | UACC-62 20.4 µM | RPMI-8226 25.9 µM | SK-OV-3 > 100 µM | MDA-MB-435 43.6 µM | IGROV-1 41.8 µM

CCCC(=O)N(C(=O)CCC)C1=C(Cl)C(=O)c2ccccc2C1=O
active: NCI-H522 0.611 µM
inactive: TK-10 4.1 µM | SF-539 3.62 µM | OVCAR-5 7.67 µM | SR 3.02 µM | PC-3 4.06 µM | OVCAR-3 3.21 µM | MOLT-4 3.25 µM | SF-295 15.8 µM | HOP-62 11.9 µM | A498 18.3 µM | SK-MEL-5 3.1 µM | SK-MEL-2 4.42 µM | SNB-75 3.18 µM | K562 2.18 µM | UACC-62 2.49 µM | SK-OV-3 15.5 µM | MDA-MB-435 4.63 µM | IGROV-1 5.66 µM

O=C1Nc2ccccc2/C1=N/Nc1ccc([N+](=O)[O-])cc1[N+](=O)[O-]
inactive: TK-10 9.08 µM | SF-539 2.48 µM | OVCAR-5 12.6 µM | SR 25.6 µM | PC-3 12.9 µM | OVCAR-3 3.13 µM | MOLT-4 > 100 µM | SF-295 8.77 µM | HOP-62 9.04 µM | A498 22.4 µM | SK-MEL-5 10.6 µM | NCI-H522 12.9 µM | SNB-75 18.7 µM | K562 32.4 µM | UACC-62 20.3 µM | RPMI-8226 26.1 µM | SK-OV-3 12.1 µM | MDA-MB-435 98.4 µM | IGROV-1 7.94 µM

NC(=O)N/N=C\CC(O)(C(F)(F)Cl)C(F)(F)Cl
inactive: TK-10 > 10 µM | SF-539 > 10 µM | SR > 10 µM | PC-3 > 10 µM | OVCAR-3 > 10 µM | MOLT-4 > 10 µM | SF-295 > 10 µM | HOP-62 > 10 µM | A498 > 10 µM | SK-MEL-5 > 10 µM | SK-MEL-2 > 10 µM | NCI-H522 > 10 µM | SNB-75 > 10 µM | K562 > 10 µM | UACC-62 > 10 µM | RPMI-8226 > 10 µM | SK-OV-3 > 10 µM | MDA-MB-435 > 10 µM | IGROV-1 > 10 µM

Fc1cc(C2=Nn3c(CNc4ccc(Cl)cc4)nnc3S/C2=C\c2ccc(-c3ccc(Cl)cc3)o2)c(Cl)cc1Cl
inactive: TK-10 17.5 µM | OVCAR-5 18.7 µM | SR 29.6 µM | PC-3 14.9 µM | OVCAR-3 29.6 µM | MOLT-4 3.33 µM | SF-295 22.3 µM | HOP-62 21.8 µM | A498 17.5 µM | SK-MEL-5 26.1 µM | SK-MEL-2 22.6 µM | NCI-H522 38 µM | K562 11.9 µM | UACC-62 13.6 µM | RPMI-8226 23.2 µM | MDA-MB-435 68.5 µM | IGROV-1 17.7 µM

Cn1c2n/c(=N\c3ccc(Cl)cc3)[n+]3ccc4ccccc4c3c-2c([O-])n1-c1ccccc1
inactive: TK-10 > 100 µM | OVCAR-5 > 100 µM | SR > 100 µM | PC-3 > 100 µM | OVCAR-3 > 100 µM | MOLT-4 > 100 µM | SF-295 > 100 µM | HOP-62 > 100 µM | A498 > 100 µM | SK-MEL-5 > 100 µM | SK-MEL-2 > 100 µM | NCI-H522 > 100 µM | SNB-75 > 100 µM | K562 > 100 µM | UACC-62 > 100 µM | RPMI-8226 > 100 µM | MDA-MB-435 > 100 µM | IGROV-1 > 100 µM

O=C(CCCCCC(=O)N1CC(CCl)c2ccc([N+](=O)[O-])cc21)N1CC(CCl)c2ccc([N+](=O)[O-])cc21 (stereo not drawn)
inactive: TK-10 > 100 µM | SF-539 > 100 µM | OVCAR-5 > 100 µM | SR 9.31 µM | PC-3 > 100 µM | OVCAR-3 > 100 µM | MOLT-4 > 100 µM | SF-295 87.1 µM | HOP-62 95.7 µM | A498 87.1 µM | SK-MEL-5 52.5 µM | SK-MEL-2 > 100 µM | NCI-H522 > 100 µM | SNB-75 48.1 µM | K562 > 100 µM | UACC-62 > 100 µM | SK-OV-3 > 100 µM | MDA-MB-435 > 100 µM | IGROV-1 > 100 µM

COc1ccccc1N1C(=O)CS(=O)(=O)C1c1cccc(Oc2ccccc2)c1 (stereo not drawn)
inactive: TK-10 18.5 µM | SF-539 16 µM | OVCAR-5 26.2 µM | SR 5.57 µM | PC-3 12.2 µM | OVCAR-3 18.7 µM | MOLT-4 13.9 µM | SF-295 16.7 µM | HOP-62 18.6 µM | A498 18.9 µM | SK-MEL-5 14.4 µM | SK-MEL-2 13 µM | NCI-H522 12.6 µM | SNB-75 20 µM | K562 4.06 µM | UACC-62 12.1 µM | SK-OV-3 23.8 µM | MDA-MB-435 4.26 µM

CN(C)C(=C1c2cc([N+](=O)[O-])ccc2-c2ccc([N+](=O)[O-])cc21)N(C)C
inactive: TK-10 > 100 µM | OVCAR-5 > 100 µM | SR 2.37 µM | PC-3 > 100 µM | OVCAR-3 > 100 µM | MOLT-4 5.24 µM | SF-295 > 100 µM | HOP-62 > 100 µM | A498 > 100 µM | SK-MEL-5 > 100 µM | SK-MEL-2 > 100 µM | NCI-H522 > 100 µM | SNB-75 > 100 µM | K562 > 100 µM | UACC-62 > 100 µM | RPMI-8226 3.32 µM | SK-OV-3 > 100 µM | MDA-MB-435 > 100 µM | IGROV-1 > 100 µM

Cc1cc(O)c2c(c1)C[C@@H](O)C1=C2C(=O)c2c(O)ccc(OC3CC(O)C(OC4CC(OC5CCC(OC6CC(O)C(OC7CC(OC8CCC(O)C(C)O8)C(O)C(C)O7)C(C)O6)C(C)O5)C(O)C(C)O4)C(C)O3)c2C1=O (stereo partly drawn)
active: TK-10 0.184 µM | SF-539 0.0716 µM | OVCAR-5 0.128 µM | SR 0.0715 µM | PC-3 0.223 µM | OVCAR-3 0.0641 µM | MOLT-4 0.0352 µM | SF-295 0.0441 µM | HOP-62 0.232 µM | A498 0.373 µM | SK-MEL-5 0.0879 µM | SK-MEL-2 0.0577 µM | NCI-H522 0.0188 µM | SNB-75 0.0573 µM | K562 0.0653 µM | UACC-62 0.0702 µM | RPMI-8226 0.0265 µM | MDA-MB-435 0.135 µM | IGROV-1 0.176 µM

CC(NC1=NCCO1)c1ccsc1 (stereo not drawn)
inactive: TK-10 65.5 µM | SF-539 16.2 µM | OVCAR-5 > 100 µM | SR 24.8 µM | PC-3 21.1 µM | OVCAR-3 28.8 µM | MOLT-4 22.7 µM | SF-295 17.8 µM | A498 > 100 µM | SK-MEL-5 20 µM | SK-MEL-2 21.9 µM | NCI-H522 17.7 µM | SNB-75 13.2 µM | K562 21.4 µM | UACC-62 17.6 µM | RPMI-8226 7.52 µM | SK-OV-3 71.8 µM | MDA-MB-435 20.9 µM | IGROV-1 34.8 µM
